Assay results taken from PubChem BioAssay (NCI).
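Abbreviation: GI50, concentration required for 50% inhibition of growth. Definition used: TGI = concentration required for complete inhibition of growth.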

Columns and labels:
Assay in all cases: DTP human tumour cell line panel, 384-well format; in the data active means GI50 below about 0.43 µM; inactive means the rest
PC-3 prostate = system: PC-3 prostate
K-562 leukemia = system: K-562 leukemia
SR leukemia = system: SR leukemia
IGROV1 ovarian = system: IGROV1 ovarian
SF-539 CNS = system: SF-539 CNS
RXF 393 renal = system: RXF 393 renal
A549 NSCLC = system: A549 NSCLC
MOLT-4 leukemia = system: MOLT-4 leukemia
KM12 colon = system: KM12 colon
A498 renal = system: A498 renal
ACHN renal = system: ACHN renal
CCRF-CEM leukemia = system: CCRF-CEM leukemia
BT-549 breast = system: BT-549 breast
MDA-MB-231 breast = system: MDA-MB-231 breast
UACC-62 melanoma = system: UACC-62 melanoma
NCI-H322M lung = system: NCI-H322M lung
SN12C renal = system: SN12C renal
OVCAR-3 ovarian = system: OVCAR-3 ovarian
T-47D breast = system: T-47D breast
DU-145 prostate = system: DU-145 prostate
MCF7 breast = system: MCF7 breast
SK-OV-3 ovarian = system: SK-OV-3 ovarian
HT29 colon = system: HT29 colon
NCI/ADR-RES ovarian = system: NCI/ADR-RES ovarian
NCI-H460 NSCLC = system: NCI-H460 NSCLC
RPMI-8226 leukemia = system: RPMI-8226 leukemia
NCI-H23 lung = system: NCI-H23 lung
COLO 205 colon = system: COLO 205 colon
OVCAR-4 ovarian = system: OVCAR-4 ovarian
HL-60(TB) leukemia = system: HL-60(TB) leukemia
OVCAR-5 ovarian = system: OVCAR-5 ovarian
HOP-62 NSCLC = system: HOP-62 NSCLC
HOP-92 NSCLC = system: HOP-92 NSCLC
EKVX NSCLC = system: EKVX NSCLC
UACC-257 melanoma = system: UACC-257 melanoma
SK-MEL-5 melanoma = system: SK-MEL-5 melanoma
TK-10 renal = system: TK-10 renal
786-0 renal = system: 786-0 renal
NCI-H522 lung = system: NCI-H522 lung
OVCAR-8 ovarian = system: OVCAR-8 ovarian
MDA-MB-468 breast = system: MDA-MB-468 breast
SF-268 CNS = system: SF-268 CNS
SW-620 colon = system: SW-620 colon
SK-MEL-28 melanoma = system: SK-MEL-28 melanoma
SF-295 CNS = system: SF-295 CNS
LOX IMVI melanoma = system: LOX IMVI melanoma
SNB-75 CNS = system: SNB-75 CNS
UO-31 renal = system: UO-31 renal
MALME-3M melanoma = system: MALME-3M melanoma
M14 melanoma = system: M14 melanoma
SNB-19 CNS = system: SNB-19 CNS
NCI-H226 lung = system: NCI-H226 lung
HS 578T breast = system: HS 578T breast
U251 glioblastoma = system: U251 glioblastoma
HCT-15 colon = system: HCT-15 colon
HCC-2998 colon = system: HCC-2998 colon
MDA-MB-435 melanoma = system: MDA-MB-435 melanoma
CAKI-1 renal = system: CAKI-1 renal

O=C(NOC[C@H](O)CO)c1ccc(F)c(F)c1Nc1ccc(I)cc1F
0.492 µM: TGI (HOP-92 NSCLC)
92.7 µM: TGI (MOLT-4 leukemia)
0.722 µM: TGI (LOX IMVI melanoma)
25.5 µM: TGI (A549 NSCLC)
18 µM: TGI (RPMI-8226 leukemia)
10.9 µM: TGI (MDA-MB-468 breast)
85.1 µM: TGI (NCI/ADR-RES ovarian)
45.8 µM: TGI (SK-MEL-5 melanoma)
65.9 µM: TGI (SF-539 CNS)
39.1 µM: TGI (IGROV1 ovarian)
24.1 µM: TGI (UO-31 renal)
18.1 µM: TGI (NCI-H226 lung)
inactive: GI50 (PC-3 prostate) > 100 µM | GI50 (SR leukemia) 26.4 µM | GI50 (SF-539 CNS) 1.34 µM | GI50 (RXF 393 renal) 0.645 µM | GI50 (MOLT-4 leukemia) 28.1 µM | GI50 (A498 renal) 0.436 µM | GI50 (ACHN renal) 0.471 µM | GI50 (CCRF-CEM leukemia) 39.8 µM | GI50 (BT-549 breast) 9.53 µM | GI50 (OVCAR-3 ovarian) 21.8 µM | GI50 (T-47D breast) 11.8 µM | GI50 (DU-145 prostate) 3.46 µM | GI50 (MCF7 breast) 33.7 µM | GI50 (SK-OV-3 ovarian) 7.02 µM | GI50 (NCI/ADR-RES ovarian) 6.17 µM | GI50 (TK-10 renal) 0.689 µM | GI50 ([…]-0 renal) 10.4 µM | GI50 (NCI-H522 lung) 15.3 µM | GI50 (OVCAR-8 ovarian) 11.8 µM | GI50 (MDA-MB-468 breast) 0.865 µM | GI50 (SF-268 CNS) 33.3 µM | GI50 (SF-295 CNS) 22.3 µM | GI50 (SNB-75 CNS) 2.68 µM | GI50 (UO-31 renal) 0.506 µM | GI50 (HS 578T breast) 2.73 µM | GI50 (U251 glioblastoma) 0.577 µM | GI50 (HCT-15 colon) 0.749 µM
0.0136 µM: TGI (COLO 205 colon)
< 0.01 µM: TGI (UACC-62 melanoma) | TGI (HL-60(TB) leukemia) | TGI (UACC-257 melanoma) | TGI (SK-MEL-28 melanoma) | TGI (MALME-3M melanoma) | TGI (M14 melanoma)
active: GI50 (K-562 leukemia) 0.205 µM | GI50 (IGROV1 ovarian) 0.0573 µM | GI50 (A549 NSCLC) 0.0196 µM | GI50 (KM12 colon) < 0.01 µM | GI50 (MDA-MB-231 breast) 0.0331 µM | GI50 (UACC-62 melanoma) < 0.01 µM | GI50 (NCI-H322M lung) 0.0373 µM | GI50 (SN12C renal) < 0.01 µM | GI50 (HT29 colon) < 0.01 µM | GI50 (NCI-H460 NSCLC) 0.369 µM | GI50 (RPMI-8226 leukemia) < 0.01 µM | GI50 (NCI-H23 lung) < 0.01 µM | GI50 (COLO 205 colon) < 0.01 µM | GI50 (OVCAR-4 ovarian) 0.0375 µM | GI50 (HL-60(TB) leukemia) < 0.01 µM | GI50 (OVCAR-5 ovarian) < 0.01 µM | GI50 (HOP-62 NSCLC) 0.0116 µM | GI50 (HOP-92 NSCLC) 0.0133 µM | GI50 (EKVX NSCLC) 0.358 µM | GI50 (UACC-257 melanoma) < 0.01 µM | GI50 (SK-MEL-5 melanoma) < 0.01 µM | GI50 (SW-620 colon) < 0.01 µM | GI50 (SK-MEL-28 melanoma) < 0.01 µM | GI50 (LOX IMVI melanoma) < 0.01 µM | GI50 (MALME-3M melanoma) < 0.01 µM | GI50 (M14 melanoma) < 0.01 µM | GI50 (SNB-19 CNS) 0.164 µM | GI50 (NCI-H226 lung) < 0.01 µM | GI50 (HCC-2998 colon) < 0.01 µM | GI50 (MDA-MB-435 melanoma) < 0.01 µM | GI50 (CAKI-1 renal) 0.0974 µM
0.391 µM: TGI (NCI-H23 lung)
65.7 µM: TGI (OVCAR-4 ovarian)
74.2 µM: TGI (SNB-75 CNS)
> 100 µM: TGI (PC-3 prostate) | TGI (K-562 leukemia) | TGI (SR leukemia) | TGI (RXF 393 renal) | TGI (KM12 colon) | TGI (A498 renal) | TGI (ACHN renal) | TGI (CCRF-CEM leukemia) | TGI (BT-549 breast) | TGI (NCI-H322M lung) | TGI (OVCAR-3 ovarian) | TGI (T-47D breast) | TGI (DU-145 prostate) | TGI (MCF7 breast) | TGI (SK-OV-3 ovarian) | TGI (HT29 colon) | TGI (NCI-H460 NSCLC) | TGI (HOP-62 NSCLC) | TGI (EKVX NSCLC) | TGI (TK-10 renal) | TGI (786-0 renal) | TGI (NCI-H522 lung) | TGI (OVCAR-8 ovarian) | TGI (SF-268 CNS) | TGI (SW-620 colon) | TGI (SF-295 CNS) | TGI (SNB-19 CNS) | TGI (HS 578T breast) | TGI (U251 glioblastoma) | TGI (HCT-15 colon) | TGI (MDA-MB-435 melanoma) | TGI (CAKI-1 renal)
0.934 µM: TGI (MDA-MB-231 breast)
26.1 µM: TGI (OVCAR-5 ovarian)
0.0395 µM: TGI (HCC-2998 colon)
22.9 µM: TGI (SN12C renal)
